Data on ten molecules can be found in US8785653B2, “(3-aryl-1H-1,2,4-triazol-5-yl)-linked heterocycle derivatives” (H. Lundbeck A/S, priority 2009, dated 2014).

Data set [1] deals with T1, PDE10A enzyme (Homo sapiens, UniProt Q9Y233).
T1 construct: made in house; host or cells: E. coli BL21(DE3)
Kind of data set: PDE10A inhibition assay. The data set is classed as biochemical. As to conditions: 3H-labelled cAMP substrate 5 nM, SPA beads, one hr at room temperature. On the procedure:
Active PDE10A enzyme is prepared in a number of ways for use in PDE assays (Loughney, K. et al. Gene 1999, 234, 109-117; Fujishige, K. et al. Eur J Biochem. 1999, 266, 1118-1127 and Soderling, S. et al. Proc. Natl. Acad. Sci. 1999, 96, 7071-7076). PDE10A can be expressed as full-length proteins or as truncated proteins, as long as they express the catalytic domain. PDE10A can be prepared in different cell types, for example insect cells or E. coli. An example of a method to obtain catalytically active PDE10A is as follows: The catalytic domain of human PDE10A (amino acids 440-779 from the sequence with accession number NP 006652) is amplified from total human brain total RNA by standard RT-PCR and is cloned into the BamH1 and Xho1 sites of the pET28a vector (Novagen). Expression in coil is performed according to standard protocols. Briefly, the expression plasmids are transformed into the BL21(DE3) E. coli strain, and 50 mL cultures inoculated with the cells allowed to grow to an OD600 of 0.4-0.6 before protein expression is induced with 0.5mM IPTG. Following induction, the cells are incubated overnight at room temperature, after which the cells are collected by centrifugation. Cells expressing PDE10A are resuspended in 12 mL (50 mM TRIS-HCl-pH8.0, 1 mM MgCl2 and protease inhibitors). The cells are lysed by sonication, and after all cells are lysed, TritonX100 is added according to Novagen protocols.
A PDE10A assay may for example, be performed as follows: The assay is performed in 60 uL samples containing a fixed amount of the relevant PDE enzyme (sufficient to convert 20-25% of the cyclic nucleotide substrate), a buffer (50 mM HEPES7.6; 10 mM MgCl2; 0.02% Tween20), 0.1 mg/mI BSA, 225 pCi of ^3H-labelled cyclic nucleotide substrate, tritium labeled cAMP to a final concentration of 5 nM and varying amounts of inhibitors. Reactions are initiated by addition of the cyclic nucleotide substrate, and reactions are allowed to proceed for one hr at room temperature before being terminated through mixing with 15 uL 8 mg/mL yttrium silicate SPA beads (Amersham). The beads are allowed to settle for one hr in the dark before the plates are counted in a Wallac 1450 Microbeta counter. The measured signal can be converted to activity relative to an uninhibited control (100%) and IC50 values can be calculated using the XIfit extension to EXCEL.

The subject of data set [2] is rats. The settings on record: cited from earlier work.
Data set [3] concerns rats. The settings on record: cited from earlier work. This is another data set of the same source.
In data set [4] the test system is rats. As to conditions: cited from earlier work. This is another data set of the same source.

T1 sequence (Q9Y233 716-1055): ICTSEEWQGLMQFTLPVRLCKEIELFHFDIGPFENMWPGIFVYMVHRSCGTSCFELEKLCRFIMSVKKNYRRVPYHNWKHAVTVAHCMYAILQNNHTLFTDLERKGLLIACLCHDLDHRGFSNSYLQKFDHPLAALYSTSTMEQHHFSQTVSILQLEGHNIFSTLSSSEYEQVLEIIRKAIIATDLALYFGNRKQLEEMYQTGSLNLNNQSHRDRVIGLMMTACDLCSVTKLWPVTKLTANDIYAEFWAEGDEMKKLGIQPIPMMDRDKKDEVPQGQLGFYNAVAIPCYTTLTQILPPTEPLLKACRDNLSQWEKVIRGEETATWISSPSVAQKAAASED

On to `CCCn1nc(-c2ccccc2)nc1CCc1nc2c(CC)ccc(C)n2n1` [8-Ethyl-5-methyl-2-[2-(5-phenyl-2-propyl-2H-[1,2,4]triazol-3-yl)-ethyl]-[1,2,4]triazolo[1,5-a]pyridine], for which the melting point lay in the range of 141 to 143 °C. In data set [1], this molecule registered a half-maximal inhibitory concentration (IC50) of 10 nM.
`COc1cccn2nc(CCc3nc(-c4ccccc4)nn3C)nc12` [8-Methoxy-2-[2-(2-methyl-5-phenyl-2H-[1,2,4]triazol-3-yl)-ethyl]-[1,2,4]triazolo[1,5-a]pyridine] registered an IC50 in data set [1] of 560 nM.
For `COCCn1nc(-c2ccccc2)nc1CCc1nc2c(OC)ccc(C)n2n1` [8-Methoxy-2-{2-[2-(2-methoxy-ethyl)-5-phenyl-2H-[1,2,4]triazol-3-yl]-ethyl}-5-methyl-[1,2,4]triazolo[1,5-a]pyridine], the concentration for half-maximal inhibition (IC50) in data set [1] amounted to 62 nM.
Molecule `COc1ccc(C)n2nc(CSc3nc(-c4ccccc4)n[nH]3)nc12` [8-Methoxy-5-methyl-2-(5-phenyl-2H-[1,2,4]triazol-3-ylsulfanylmethyl)-[1,2,4]triazolo[1,5-a]pyridine] gave a 50% inhibitory concentration (IC50) in data set [1] of 52 nM.
Regarding `COc1ccc(C)n2nc(CCc3nc(-c4ccccc4)nn3C)nc12` [8-Methoxy-5-methyl-2-[2-(2-methyl-5-phenyl-2H-[1,2,4]triazol-3-yl)-ethyl]-[1,2,4]triazolo[1,5-a]pyridine], the IC50 in data set [1] was 25 nM.
In data set [1], `CCCn1nc(-c2ccccc2)nc1CCc1nc2c(OC)ccc(C)n2n1` [8-Methoxy-5-methyl-2-[2-(5-phenyl-2-propyl-2H-[1,2,4]triazol-3-yl)-ethyl]-[1,2,4]triazolo[1,5-a]pyridine] registered an IC50 of 37 nM.
In data set [1], `COc1ccc(C)n2nc(CCc3nc(-c4ccccc4)nn3CC(F)(F)F)nc12` [8-Methoxy-5-methyl-2-{2-[5-phenyl-2-(2,2,2-trifluoro-ethyl)-2H-[1,2,4]triazol-3-yl]-ethyl}-[1,2,4]triazolo[1,5-a]pyridine] registered a half-maximal inhibitory concentration (IC50) of 180 nM.
In turn, `Cc1cccn2nc(CCc3nc(-c4ccccc4)nn3C)nc12` [8-Methyl-2-[2-(2-methyl-5-phenyl-2H-[1,2,4]triazol-3-yl)-ethyl]-[1,2,4]triazolo[1,5-a]pyridine] displayed an IC50 in data set [1] of 170 nM.
Take `COc1ccc(Cc2nccc3cc(OC)c(OC)cc23)cc1OC` [Papaverine, papaverine]: the “catalepsy on its own” value in data set [2] (papaverine alone) is “did not cause catalepsy”. Moreover, in data set [2] (together with haloperidol), the “cataleptic effect of the D2 receptor antagonist haloperidol” value is “potentiated”. Also, the “hyperactivity induced by PCP” value in data set [3] was “reduced hyperactivity”. Besides, in data set [4], the “reduction of amphetamine induced hyperactivity” value is reported as “insignificant”.
For the molecule `CCOC(=O)Cn1nc(-c2ccccc2)nc1CCc1nc2c(OC)ccc(C)n2n1` [{5-[2-(8-Methoxy-5-methyl-[1,2,4]triazolo[1,5-a]pyridin-2-yl)-ethyl]-3-phenyl-[1,2,4]triazol-1-yl}-acetic acid ethyl ester], in data set [1], the half-inhibitory concentration (IC50) is 81 nM.

By IC50 is commonly meant the concentration that gives 50% inhibition. For orientation: melting point means the temperature, or range, at which the solid turns liquid.
